Reference: US20230295197A1, “STAT5 and STAT6 Degraders and Uses Thereof” (REGENTS OF THE UNIVERSITY OF MICHICAN, priority 2022, published 2023)
Like-named read-outs stand apart in the source and are kept apart here.

Test system: STAT5
Test: Immunoblotting (Western blot) analysis of STAT5 degradation efficiency of degraders in treated cells
Assay type: cell-based
Experimental: Evaluation of the degradation efficiency of degraders may be accomplished by immunoblotting analysis. The representative general protocol is the following:
Cells are maintained in the appropriate culture medium with 10% FBS at 37° C. and an atmosphere of 5% CO2. Cell lines are used within three months of thawing fresh vials. Cells are lysed 1× Cell Lysis Buffer (Cell Signaling Technology, #9803), resolved by SDS-PAGE NuPAGE gel (Thermo Fisher Scientific), and transferred to a PVDF membrane (Millipore). Membranes are blocked using Odyssey TBS Blocker Buffer (LI-COR). IRDye 680RD and 800CW Dye-labeled secondary antibodies (LI-COR) are used. The washed membranes are scanned using Odyssey CLx imager (LI-COR). The intensity of Western blot signaling is quantitated using the Odyssey software. Primary antibodies used are: STAT5 Rabbit mAb (Cell Signaling Technology, #94205), STAT6 Rabbit mAb (Cell Signaling Technology, #5397) and GAPDH mouse monoclonal antibody (Santa Cruz Biotechnology, sc-47724).
To evaluate the degradation efficiency of degraders, immunoblotting analysis was performed. The general protocol is the following.
About 1 million cells for each data point were treated with compounds at indicated concentrations and durations. Untreated and treated cells in cell culture medium were transferred into tubes, followed by centrifugation at 3,000 rpm and 4° C. for 6 min Supernatants were removed from tubes and radioimmunoprecipitation assay (RIPA) lysis buffer supplemented with 1% protease inhibitor cocktail (Fisher Scientific cat. PI87786) and phosphatase inhibitor (Roche cat. 04906837001) were added to tubes containing the remaining cell pellets. The tubes were then left on ice for 30 min and placed in a −80° C. freezer. Subsequently they were thawed in 37° C. water, then centrifuged at 14,000 rpm for 15 min and the cell lysates transferred to new tubes. The concentration of total proteins in each tube was calculated using the Pierce BCA protein Assay kit (cat. 23225). Based on the calculated protein concentration, cell lysates containing approximately the same amount of proteins were transferred to new tubes, then distilled water and 4× Protein Sample Loading Buffer for Western Blots (LI-COR cat. 928-40004) supplemented with 20% of mercaptoethanol (Sigma Aldrich cat. M6250) were added on ice. The cell lysates were then reduced and denatured at 95° C. for 5 min. From the tubes containing cell lysates an equal amount of protein samples (20-40 μg) was loaded into precast 8%, 10%, 4%-12%, or 4%-20% Tris-glycine gels (Novex) filled with Tris-glycine SDS running buffer. After the proteins were resolved, they were transferred onto Immobile-FL PVDF Membrane (Millipore Sigma cat. IPFL00010), using Mini Trans-Blot Electrophoretic Transfer Cell (Bio-Rad 1703930). The membranes were blocked with Intercept Blocking Buffer (LI-COR cat. 927-70001) in LI-COR Western Blot boxes for 1 h at rt. The membranes were washed with 1× Tris-buffered saline-Tween-20 (TBST, 1× solution was made from 20×TBST solution, ThermoFisher Scientific cat. 28360) for 5 min 4 times. The membranes were incubated overnight at 4° C. in Intercept Blocking Buffer supplemented with primary antibodies (normally antibody:buffer 1:1000) and Tween-20. The membranes were washed with TBST for 5 min 4 times and were incubated with Intercept Blocking Buffer supplemented with IRDye 800CE Secondary Antibodies, IRDye 680RD Secondary Antibodies (LI-COR biosciences), Tween-20, and 10% SDS solution, for 1 h at rt. The membranes were then washed with TBST for 5 min 4 times and rinsed with deionized water before drying and scanning with Odyssey Dlx Amazing System (LI-COR). The immunoblots were finally quantified by the software.

[1] = MOLM-16 cells, numeric bound, read-out: DC50 S5 MOLM-16
[2] = SKNO1 cells, read-out: DC50 S5 SKNO1

## CC(C)(C)[C@H](NC(=O)c1cc2cc(C(F)(F)P(=O)(O)O)ccc2s1)C(=O)N1CCC[C@H]1C(=O)N(CCC(=O)NCCCC#Cc1cccc2c1CN(C1CCC(=O)NC1=O)C2=O)c1cccc(-c2ccccc2)c1 (stereo partly drawn) [Compound 649, ((2-(((2S)-1-((2S)-2-([1,1′-biphenyl]-3-yl(3-((5-(2-(2,6-dioxopiperidin-3-yl)-1-oxoisoindolin-4-yl)pent-4-yn-1-yl)amino)-3-oxopropyl)carbamoyl)pyrrolidin-1-yl)-3,3-dimethyl-1-oxobutan-2-yl)carbamoyl)benzo[b]thiophen-5-yl)difluoromethyl)phosphonic acid]
[1]
  DC50: > 300 nM
[2]
  DC50: 1000 to 10000 nM

## CC(C)(C)[C@H](NC(=O)c1cc2cc(C(F)(F)P(=O)(O)O)ccc2s1)C(=O)N1C[C@@H](OCc2ccccc2)C[C@H]1C(=O)N(CCC(=O)NCCC#Cc1cccc2c1CN(C1CCC(=O)NC1=O)C2=O)c1ccc(Br)cc1 (stereo partly drawn) [Compound 622, ((2-(((2S)-1-((2S,4S)-4-(benzyloxy)-2-((4-bromophenyl)(3-((4-(2-(2,6-dioxopiperidin-3-yl)-1-oxoisoindolin-4-yl)but-3-yn-1-yl)amino)-3-oxopropyl)carbamoyl)pyrrolidin-1-yl)-3,3-dimethyl-1-oxobutan-2-yl)carbamoyl)benzo[b]thiophen-5-yl)difluoromethyl)phosphonic acid]
[1]
  DC50: > 300 nM

## CC(C)(C)[C@H](NC(=O)c1cc2cc(C(F)(F)P(=O)(O)O)ccc2s1)C(=O)N1C[C@H](OCc2ccccc2)C[C@H]1C(=O)N(CCC(=O)NCCC#Cc1cccc2c1CN(C1CCC(=O)NC1=O)C2=O)c1ccc(Br)cc1 (stereo partly drawn) [Compound 617, ((2-(((2S)-1-((2S,4R)-4-(benzyloxy)-2-((4-bromophenyl)(3-((4-(2-(2,6-dioxopiperidin-3-yl)-1-oxoisoindolin-4-yl)but-3-yn-1-yl)amino)-3-oxopropyl)carbamoyl)pyrrolidin-1-yl)-3,3-dimethyl-1-oxobutan-2-yl)carbamoyl)benzo[b]thiophen-5-yl)difluoromethyl)phosphonic acid]
[1]
  DC50: > 300 nM

## CCN1CC[C@H]2CC[C@@H](C(=O)N(CCC(=O)NCCCCC#Cc3cccc4c3CN(C3CCC(=O)NC3=O)C4=O)c3ccc(Br)cc3)N2C(=O)[C@@H](NC(=O)c2cc3cc(C(F)(F)P(=O)(O)O)ccc3s2)C1 (stereo partly drawn) [Compound 628, ((2-(((5S,8S,10aR)-8-((4-bromophenyl)(3-((6-(2-(2,6-dioxopiperidin-3-yl)-1-oxoisoindolin-4-yl)hex-5-yn-1-yl)amino)-3-oxopropyl)carbamoyl)-3-ethyl-6-oxodecahydropyrrolo[1,2-a][1,5]diazocin-5-yl)carbamoyl)benzo[b]thiophen-5-yl)difluoromethyl)phosphonic acid]
[1]
  DC50: > 300 nM

## CC(C)(C)[C@H](NC(=O)c1cc2cc(C(F)(F)P(=O)(O)O)ccc2s1)C(=O)N1CCC[C@H]1C(=O)N(CCC(=O)NCCCCC#Cc1cccc2c1CN(C1CCC(=O)NC1=O)C2=O)c1ccc(Cl)c(F)c1 (stereo partly drawn) [Compound 639, ((2-(((2S)-1-((2S)-2-((4-chloro-3-fluorophenyl)(3-((6-(2-(2,6-dioxopiperidin-3-yl)-1-oxoisoindolin-4-yl)hex-5-yn-1-yl)amino)-3-oxopropyl)carbamoyl)pyrrolidin-1-yl)-3,3-dimethyl-1-oxobutan-2-yl)carbamoyl)benzo[b]thiophen-5-yl)difluoromethyl)phosphonic acid]
[1]
  DC50: > 300 nM
[2]
  DC50: > 10000 nM

## CC(C)(C)[C@H](NC(=O)c1cc2cc(C(F)(F)P(=O)(O)O)ccc2s1)C(=O)N1C[C@H](OCc2ccccc2)C[C@H]1C(=O)N(CCC(=O)NCCCCC#Cc1cccc2c1CN(C1CCC(=O)NC1=O)C2=O)c1ccc(Br)cc1 (stereo partly drawn) [Compound 619, ((2-(((2S)-1-((2S,4R)-4-(benzyloxy)-2-((4-bromophenyl)(3-((6-(2-(2,6-dioxopiperidin-3-yl)-1-oxoisoindolin-4-yl)hex-5-yn-1-yl)amino)-3-oxopropyl)carbamoyl)pyrrolidin-1-yl)-3,3-dimethyl-1-oxobutan-2-yl)carbamoyl)benzo[b]thiophen-5-yl)difluoromethyl)phosphonic acid]
[1]
  DC50: > 300 nM

## CC(C)(C)[C@H](NC(=O)c1cc2cc(C(F)(F)P(=O)(O)O)ccc2s1)C(=O)N1C[C@@H](OCc2ccccc2)C[C@H]1C(=O)N(CCC(=O)NCCCC#Cc1cccc2c1CN(C1CCC(=O)NC1=O)C2=O)c1ccc(Br)cc1 (stereo partly drawn) [Compound 623, ((2-(((2S)-1-((2S,4S)-4-(benzyloxy)-2-((4-bromophenyl)(3-((5-(2-(2,6-dioxopiperidin-3-yl)-1-oxoisoindolin-4-yl)pent-4-yn-1-yl)amino)-3-oxopropyl)carbamoyl)pyrrolidin-1-yl)-3,3-dimethyl-1-oxobutan-2-yl)carbamoyl)benzo[b]thiophen-5-yl)difluoromethyl)phosphonic acid]
[1]
  DC50: > 300 nM

## CC(C)(C)[C@H](NC(=O)c1cc2cc(C(F)(F)P(=O)(O)O)ccc2s1)C(=O)N1CCC[C@H]1C(=O)N(CCC(=O)NCCCC#Cc1cccc2c1CN(C1CCC(=O)NC1=O)C2=O)c1ccc(Cl)c(F)c1 (stereo partly drawn) [Compound 636, ((2-(((2S)-1-((2S)-2-((4-chloro-3-fluorophenyl)(3-((5-(2-(2,6-dioxopiperidin-3-yl)-1-oxoisoindolin-4-yl)pent-4-yn-1-yl)amino)-3-oxopropyl)carbamoyl)pyrrolidin-1-yl)-3,3-dimethyl-1-oxobutan-2-yl)carbamoyl)benzo[b]thiophen-5-yl)difluoromethyl)phosphonic acid]
[1]
  DC50: > 300 nM
[2]
  DC50: > 10000 nM

## CC(C)(C)[C@H](NC(=O)c1cc2cc(C(F)(F)P(=O)(O)O)ccc2s1)C(=O)N1CCC[C@H]1C(=O)N(CC(=O)NCCCCC#Cc1cccc2c1CN(C1CCC(=O)NC1=O)C2=O)c1ccc(F)cc1 (stereo partly drawn) [Compound 640, ((2-(((2S)-1-((2S)-2-((2-((6-(2-(2,6-dioxopiperidin-3-yl)-1-oxoisoindolin-4-yl)hex-5-yn-1-yl)amino)-2-oxoethyl)(4-fluorophenyl)carbamoyl)pyrrolidin-1-yl)-3,3-dimethyl-1-oxobutan-2-yl)carbamoyl)benzo[b]thiophen-5-yl)difluoromethyl)phosphonic acid]
[1]
  DC50: > 300 nM

## CC(C)(C)[C@H](NC(=O)c1cc2cc(C(F)(F)P(=O)(O)O)ccc2s1)C(=O)N1C[C@H](OCc2ccccc2)C[C@H]1C(=O)N(CCC(=O)NCCCC#Cc1cccc2c1CN(C1CCC(=O)NC1=O)C2=O)c1ccc(Br)cc1 (stereo partly shown) [Compound 618]
[1]
  DC50: > 300 nM

## CCN1CC[C@H]2CC[C@@H](C(=O)N(CCC(=O)N3CCC(C#Cc4cccc5c4CN(C4CCC(=O)NC4=O)C5=O)CC3)c3ccc(Br)cc3)N2C(=O)[C@@H](NC(=O)c2cc3cc(C(F)(F)P(=O)(O)O)ccc3s2)C1 (stereo partly drawn) [Compound 630, ((2-(((5S,8S,10aR)-8-((4-bromophenyl)(3-(4-((2-(2,6-dioxopiperidin-3-yl)-1-oxoisoindolin-4-yl)ethynyl)piperidin-1-yl)-3-oxopropyl)carbamoyl)-3-ethyl-6-oxodecahydropyrrolo[1,2-a][1,5]diazocin-5-yl)carbamoyl)benzo[b]thiophen-5-yl)difluoromethyl)phosphonic acid]
[1]
  DC50: > 300 nM

## CC(C)(C)[C@H](NC(=O)c1cc2cc(C(F)(F)P(=O)(O)O)ccc2s1)C(=O)N1CCC[C@H]1C(=O)N(CCC(=O)NCCCC#Cc1cccc2c1CN(C1CCC(=O)NC1=O)C2=O)c1cccc(C#N)c1 (stereo partly drawn) [Compound 643, ((2-(((2S)-1-((2S)-2-((3-cyanophenyl)(3-((5-(2-(2,6-dioxopiperidin-3-yl)-1-oxoisoindolin-4-yl)pent-4-yn-1-yl)amino)-3-oxopropyl)carbamoyl)pyrrolidin-1-yl)-3,3-dimethyl-1-oxobutan-2-yl)carbamoyl)benzo[b]thiophen-5-yl)difluoromethyl)phosphonic acid]
[1]
  DC50: > 300 nM
[2]
  DC50: > 10000 nM
